# Results published in ChEMBL document CHEMBL1122107, “Structure-antitumor activity relationships of 9-anilinoacridines using pattern recognition” (1982).
# Test system: L1210
# Experiment: Tumor cell selectivity determined as maximal percent increase in life span (ILSmax) at LD10 dosage level in L1210 cells
# Format: functional, Mus musculus
row,Compound,ILSmax [%]
1,N=C(N)NCCCS(=O)(=O)Nc1ccc(Nc2c3ccccc3nc3cc([N+](=O)[O-])ccc23)cc1,200
2,O=[N+]([O-])c1ccc(S(=O)(=O)Nc2ccc(Nc3c4ccccc4nc4cc([N+](=O)[O-])ccc34)cc2)cc1,200
3,Nc1ccc(Nc2c3ccccc3nc3cc([N+](=O)[O-])ccc23)cc1,30
4,NCCCCCc1ccc(NC(=O)Nc2ccc(N=c3c4ccccc4[nH]c4ccccc34)cc2)cc1,170
5,O=S(=O)(CCl)Nc1ccc(Nc2c3ccccc3nc3ccccc23)cc1,55
6,CCOC(=O)NNc1ccc(Nc2c3ccccc3nc3ccccc23)cc1,75
7,CCCN(C)/N=N/c1ccc2c(Nc3ccc(NS(C)(=O)=O)cc3)c3ccccc3nc2c1,98
8,CCCCCS(=O)(=O)Nc1ccc(Nc2c3ccccc3nc3ncccc23)c(OC)c1,76
9,NC(Cc1ccc(NC(=O)Nc2ccc(N=c3c4ccccc4[nH]c4cc([N+](=O)[O-])ccc34)cc2)cc1)C(=O)O (configuration not stated),80
10,CCCC(=O)N(c1ccc(Nc2c3ccc([N+](=O)[O-])cc3nc3c(C)cccc23)cc1)S(C)(=O)=O,85
11,N=C(N)NCCCCS(=O)(=O)Nc1ccc(Nc2c3ccccc3nc3cc(Cl)ccc23)cc1,25
12,CCCCCS(=O)(=O)Nc1ccc(Nc2c3ccccc3nc3c(C(N)=O)cccc23)c(OC)c1,93
13,CCC(=O)N(c1ccc(Nc2c3ccc([N+](=O)[O-])cc3nc3c(C)cccc23)c(OC)c1)S(C)(=O)=O,72
14,O=C(O)CCCCCCc1ccc(Nc2c3ccccc3nc3ccccc23)cc1,74
15,CCCCS(=O)(=O)Nc1ccc(Nc2c3ccccc3nc3cc(NC(C)=O)ccc23)cc1,83
16,N=C(N)Nc1ccc(NC(=O)Nc2ccc(N=c3c4ccccc4[nH]c4cc([N+](=O)[O-])ccc34)cc2)cc1,200
17,O=C(O)c1ccc(S(=O)(=O)Nc2ccc(Nc3c4ccccc4nc4ccccc34)cc2)cc1,135
18,NCCc1ccc(Nc2c3ccccc3nc3ccccc23)cc1,25
19,COc1cc(NS(C)(=O)=O)ccc1Nc1c2ccccc2nc2cccc([N+](=O)[O-])c12,50

row,Compound,ILSmax [%]
1,CNc1ccc2c(Nc3ccc(NS(C)(=O)=O)cc3OC)c3ccccc3nc2c1,83
2,N#CC(C#N)=Cc1ccc(Nc2c3ccccc3nc3ccccc23)cc1,65
3,CCOC(=O)N1CCN(C(=O)Nc2ccc(Nc3c4ccccc4nc4ccccc34)cc2)CC1,50
4,CS(=O)(=O)Nc1ccc(Nc2c3ccccc3nc3ccccc23)c(O)c1,85
5,CS(=O)(=O)Nc1ccc(Nc2c3ccccc3nc3ccccc23)cn1,141
6,CCCCNC(=O)c1cccc2c(Nc3ccc(NS(C)(=O)=O)cc3OC)c3ccccc3nc12,95
7,COc1cc(NS(C)(=O)=O)ccc1Nc1c2ccc(C)cc2nc2c(OC)cccc12,72
8,NCCc1ccc(Nc2c3ccccc3nc3cc([N+](=O)[O-])ccc23)cc1,25
9,COC(=O)N(c1ccc(Nc2c3ccccc3nc3cc(NC(C)=O)ccc23)cc1)S(C)(=O)=O,125
10,COc1ccc2c(Nc3ccc(NS(C)(=O)=O)cc3)c3cccc(C)c3nc2c1,75
11,COc1cc(N)ccc1N=c1c2ccccc2[nH]c2c(C)cccc12,120
12,CN(C)c1ccc(NC(=O)Nc2ccc(Nc3c4ccccc4nc4ccccc34)cc2)cc1,170
13,Cc1ccc2c(Nc3ccc(NS(C)(=O)=O)cc3)c3ccccc3nc2c1,85
14,Nc1ccc(Nc2c3ccccc3nc3ccccc23)cc1,25
15,CCCCCCNc1ccc(Nc2c3ccccc3nc3ccccc23)cc1,25
16,O=C(O)CCCCCc1ccc(Nc2c3ccccc3nc3ccccc23)cc1,200
17,CCCCCNS(=O)(=O)c1ccc(N=c2c3ccccc3[nH]c3cc(N)ccc23)cc1,50
18,COc1cc(NS(C)(=O)=O)ccc1Nc1c2ccccc2nc2c(Br)cccc12,100
19,c1ccc2c(Nc3ccc(N4CCNCC4)cc3)c3ccccc3nc2c1,25

row,Compound,ILSmax [%]
1,CCCCC(=O)N(c1ccc(Nc2c3ccccc3nc3c(C)cccc23)c(OC)c1)S(C)(=O)=O,50
2,CCCCCCCCS(=O)(=O)Nc1ccc(Nc2c3ccccc3nc3ccccc23)c(OC)c1,40
3,NCCCCCS(=O)(=O)Nc1ccc(Nc2c3ccccc3nc3cc([N+](=O)[O-])ccc23)cc1,80
4,NC(=O)CCCCc1ccc(Nc2c3ccccc3nc3ccccc23)cc1,82
5,CS(=O)(=O)Nc1ccc(Nc2c3ccccc3nc3cc(I)ccc23)cc1,160
6,COc1ccc(Nc2c3ccccc3nc3ccccc23)c(NS(C)(=O)=O)c1,50
7,COc1cc(NS(C)(=O)=O)ccc1Nc1c2ccccc2nc2cc([N+](=O)[O-])ccc12,76
8,COc1cc(/C=C/C(=O)O)ccc1Nc1c2ccccc2nc2ccccc12,27
9,COc1cc(NS(C)(=O)=O)ccc1Nc1c2ccccc2nc2cc(C)ccc12,168
10,NCCS(=O)(=O)Nc1ccc(Nc2c3ccccc3nc3ccccc23)cc1,25
11,Cc1cccc2nc3ccccc3c(Nc3ccc(NS(C)(=O)=O)cc3)c12,25
12,O=C(O)/C=C\c1ccccc1Nc1c2ccccc2nc2ccccc12,25
13,CN(c1ccccc1Nc1c2ccccc2nc2ccccc12)S(C)(=O)=O,25
14,Fc1ccccc1Nc1c2ccccc2nc2ccccc12,25
15,CC(C)(C)c1ccccc1Nc1c2ccccc2nc2ccccc12,25
16,Nc1cccc(Nc2c3ccccc3nc3ccccc23)c1,50
17,CS(=O)(=O)Nc1ccc(Nc2c3ccccc3nc3c(N)cccc23)cc1,100
18,CS(=O)(=O)Nc1ccc(Nc2c3ccccc3nc3ccccc23)c(N)c1,105
19,COc1cc(NS(C)(=O)=O)ccc1Nc1c2ccccc2nc2ccccc12 [AMSACRINE],111
